Laboratory results taken from article PMC9863297, “Intermolecular Interactions of Edaravone in Aqueous Solutions of Ethaline and Glyceline Inferred from Experiments and Quantum Chemistry Computations” (Molecules, 2023).
In brackets after ≈: the same amount, converted by molar mass. Where two headings read alike, the source gives them in different places.

Assay: Edaravone solubility, slurry/shake-flask method with spectrophotometric determination at 243 nm
Type: physicochemical
Conditions: for solubility at 24 h: read-out: cE solubility concentration; for volume of saturated solution containing the recommended 60 mg: solubility at 298.15 K
Method: The first step in obtaining a calibration curve was the preparation of a stock solution of edaravone with a concentration of 2.3 mg/mL. This initial solution was successfully diluted in 10 mL volumetric flasks with methanol and the obtained solutions with decreasing concentrations were measured spectrophotometrically. […] Three separate curves were obtained, and the final curve resulted from averaging. […] The limits of detection (LOD) and quantification (LOQ) were calculated as 5.899∙10^−4 mg/mL and 1.770∙10^−3 mg/mL, respectively.
All of the studied deep eutectic solvents included choline chloride, while the second constituent was either glycerol or ethylene glycol. In order to prepare a DES formulation, choline chloride was mixed with the second compound in different molar ratios in sealed test tubes and placed in a water bath at 363.15 K until the formation of a uniform solution. The obtained DES were either used in their neat form or water was added to them in different proportions in order to form binary systems.
During the next stage, edaravone was added in excess amounts to the test tubes containing both neat DES and binary mixtures, which enabled us to obtain its saturated solutions. Samples prepared in such a manner were placed in an Orbital Shaker Incubator ES-20/60 from Biosan (Riga, Latvia) and incubated for 24 h at different temperatures, namely 298.15 K, 303.15 K, 308.15 K and 313.15 K. The temperature adjustment accuracy was 0.1 K and its variability in a 24 h cycle was ±0.5 K. Apart from heating, all of the samples were mixed at 60 rev/min. The increased viscosity and density of DES systems required the samples to be centrifuged at 1000 rev/min for 5 min with the use of EBA 20 centrifuge from Hettich (Tuttlingen, Germany) enabling the undissolved precipitate to remain on the bottom of the test tubes. Next, the samples were filtered using a syringe equipped with a PTFE syringe filer with 0.22 µm pore size. In order to avoid precipitation, the test tubes, syringes and filters were initially heated at a temperature equal to the one of the handled samples. Finally, small amounts of the obtained filtrate were transferred to test tubes filled with methanol and the diluted samples were measured spectrophotometrically. Additionally, for the determination of the mole fractions of edaravone, the density of the samples was measured by weighing a fixed volume of the solution in 10 mL volumetric flasks.
For determining the solubility of edaravone in the studied systems, the samples prepared, as described above, were measured spectrophotometrically using an A360 spectrophotometer from AOE Instruments (Shanghai, China). The spectra were recorded in the 190 nm to 500 nm wavelength range and 1 nm resolution. Methanol was used for the initial calibration of the spectrophotometer and for the dilution of the measured samples, which was conducted in order for the absorbance values to remain below 2.5. The absorbance values at 243 nm were taken into account and based on the calibration curve prepared earlier, the concentration of edaravone in the samples was determined, followed by its mole fractions. The values were averaged from three separate measurements.

CC1=NN(c2ccccc2)C(=O)C1 [edaravone, 5-methyl-2-phenyl-4H-pyrazol-3-one]
xE mole fraction solubility (neat DES choline chloride + glycerol (GLE) 1:2 molar ratio (x*GLE = 1.0), 303.15 K): 1606.43 (±50.52) mole fraction ∙10^4 | xE mole fraction solubility (neat DES choline chloride + glycerol (GLE) 1:2 molar ratio (x*GLE = 1.0), 308.15 K): 2151.57 (±64.56) mole fraction ∙10^4 | xE mole fraction solubility (neat DES choline chloride + glycerol (GLE) 1:2 molar ratio (x*GLE = 1.0), 313.15 K): 2991.42 (±64.1) mole fraction ∙10^4 | xE mole fraction solubility (neat DES choline chloride + glycerol (GLE) 1:4 molar ratio, 298.15 K): 926.44 (±23.62) mole fraction ∙10^4 | xE mole fraction solubility (neat DES choline chloride + glycerol (GLE) 1:4 molar ratio, 303.15 K): 1321.28 (±36.17) mole fraction ∙10^4 | xE mole fraction solubility (neat DES choline chloride + glycerol (GLE) 1:4 molar ratio, 308.15 K): 1861.97 (±40.45) mole fraction ∙10^4 | xE mole fraction solubility (neat DES choline chloride + glycerol (GLE) 1:4 molar ratio, 313.15 K): 2739.72 (±65.05) mole fraction ∙10^4 | solubility at 24 h (neat deep eutectic solvent, 25 °C, organic solvent or mixture, thermodynamic from solid, neat DES choline chloride + ethylene glycol (ETA) 1:1 molar ratio, 298.15 K): 190 mg/mL | solubility at 24 h (neat deep eutectic solvent, 25 °C, organic solvent or mixture, thermodynamic from solid, neat DES choline chloride + ethylene glycol (ETA) 1:2 molar ratio (x*ETA = 1.0), 298.15 K): 303 mg/mL | solubility at 24 h (neat deep eutectic solvent, 25 °C, organic solvent or mixture, thermodynamic from solid, neat DES choline chloride + ethylene glycol (ETA) 1:4 molar ratio, 298.15 K): 280 mg/mL | solubility at 24 h (neat deep eutectic solvent, 25 °C, organic solvent or mixture, thermodynamic from solid, neat DES choline chloride + glycerol (GLE) 1:1 molar ratio, 298.15 K): 138 mg/mL | solubility at 24 h (neat deep eutectic solvent, 30 °C, organic solvent or mixture, thermodynamic from solid, neat DES choline chloride + ethylene glycol (ETA) 1:1 molar ratio, 303.15 K): 252 mg/mL | solubility at 24 h (neat deep eutectic solvent, 30 °C, organic solvent or mixture, thermodynamic from solid, neat DES choline chloride + ethylene glycol (ETA) 1:2 molar ratio (x*ETA = 1.0), 303.15 K): 392 mg/mL | solubility at 24 h (neat deep eutectic solvent, 30 °C, organic solvent or mixture, thermodynamic from solid, neat DES choline chloride + ethylene glycol (ETA) 1:4 molar ratio, 303.15 K): 347 mg/mL | solubility at 24 h (neat deep eutectic solvent, 35 °C, organic solvent or mixture, thermodynamic from solid, neat DES choline chloride + ethylene glycol (ETA) 1:1 molar ratio, 308.15 K): 360 mg/mL | solubility at 24 h (neat deep eutectic solvent, 35 °C, organic solvent or mixture, thermodynamic from solid, neat DES choline chloride + ethylene glycol (ETA) 1:2 molar ratio (x*ETA = 1.0), 308.15 K): 499 mg/mL | solubility at 24 h (neat deep eutectic solvent, 35 °C, organic solvent or mixture, thermodynamic from solid, neat DES choline chloride + ethylene glycol (ETA) 1:4 molar ratio, 308.15 K): 467 mg/mL | solubility at 24 h (neat deep eutectic solvent, 40 °C, organic solvent or mixture, thermodynamic from solid, neat DES choline chloride + ethylene glycol (ETA) 1:1 molar ratio, 313.15 K): 484 mg/mL | solubility at 24 h (neat deep eutectic solvent, 40 °C, organic solvent or mixture, thermodynamic from solid, neat DES choline chloride + ethylene glycol (ETA) 1:2 molar ratio (x*ETA = 1.0), 313.15 K): 593 mg/mL | solubility at 24 h (neat deep eutectic solvent, 40 °C, organic solvent or mixture, thermodynamic from solid, neat DES choline chloride + ethylene glycol (ETA) 1:4 molar ratio, 313.15 K): 602 mg/mL | xE mole fraction solubility (neat water (x*DES = 0.0), 298.15 K): 1.73(±0.01) mole fraction ∙10^4 | xE mole fraction solubility (neat water (x*DES = 0.0), 303.15 K): 1.78(±0.01) mole fraction ∙10^4 | xE mole fraction solubility (neat water (x*DES = 0.0), 308.15 K): 1.84(±0.02) mole fraction ∙10^4 | xE mole fraction solubility (neat water (x*DES = 0.0), 313.15 K): 1.93(±0.01) mole fraction ∙10^4 | mole fraction solubility ratio, ethylene glycol system vs glycerol system (optimal 1:2 composition, average over temperatures): 1.34 times | volume of saturated solution containing the recommended 60 mg (optimal aqueous composition ETA): 0.14 mL | volume of saturated solution containing the recommended 60 mg (optimal aqueous composition GLE): 0.18 mL | solubility increase in optimal binary composition compared to neat DES (systems with ethylene glycol, x*DES = 0.6, average): 17% | xE mole fraction solubility (water + ETA (ChCl:EG 1:2), x*ETA = 0.2, 298.15 K): 454.10(±5.48) mole fraction ∙10^4 | xE mole fraction solubility (water + ETA (ChCl:EG 1:2), x*ETA = 0.2, 303.15 K): 574.18(±8.89) mole fraction ∙10^4 | xE mole fraction solubility (water + ETA (ChCl:EG 1:2), x*ETA = 0.2, 308.15 K): 742.26(±18.45) mole fraction ∙10^4 | xE mole fraction solubility (water + ETA (ChCl:EG 1:2), x*ETA = 0.2, 313.15 K): 890.33(±10.84) mole fraction ∙10^4 | xE mole fraction solubility (water + ETA (ChCl:EG 1:2), x*ETA = 0.4, 298.15 K): 1353.93(±5.00) mole fraction ∙10^4 | xE mole fraction solubility (water + ETA (ChCl:EG 1:2), x*ETA = 0.4, 303.15 K): 1819.02(±41.45) mole fraction ∙10^4 | xE mole fraction solubility (water + ETA (ChCl:EG 1:2), x*ETA = 0.4, 308.15 K): 2386.29(±27.09) mole fraction ∙10^4 | xE mole fraction solubility (water + ETA (ChCl:EG 1:2), x*ETA = 0.4, 313.15 K): 2954.32(±49.04) mole fraction ∙10^4 | xE mole fraction solubility (water + ETA (ChCl:EG 1:2), x*ETA = 0.5, 298.15 K): 1754.56(±31.02) mole fraction ∙10^4 | xE mole fraction solubility (water + ETA (ChCl:EG 1:2), x*ETA = 0.5, 303.15 K): 2316.25(±38.27) mole fraction ∙10^4 | xE mole fraction solubility (water + ETA (ChCl:EG 1:2), x*ETA = 0.5, 308.15 K): 3073.71(±53.04) mole fraction ∙10^4 | xE mole fraction solubility (water + ETA (ChCl:EG 1:2), x*ETA = 0.5, 313.15 K): 3822.75(±61.93) mole fraction ∙10^4 | xE mole fraction solubility (water + ETA (ChCl:EG 1:2), x*ETA = 0.6, 298.15 K): 1934.93(±34.18) mole fraction ∙10^4 | xE mole fraction solubility (water + ETA (ChCl:EG 1:2), x*ETA = 0.6, 303.15 K): 2552.36(±52.56) mole fraction ∙10^4 | xE mole fraction solubility (water + ETA (ChCl:EG 1:2), x*ETA = 0.6, 308.15 K): 3306.79(±48.29) mole fraction ∙10^4 | xE mole fraction solubility (water + ETA (ChCl:EG 1:2), x*ETA = 0.6, 313.15 K): 3982.72(±70.26) mole fraction ∙10^4 | xE mole fraction solubility (water + ETA (ChCl:EG 1:2), x*ETA = 0.8, 298.15 K): 1713.96(±31.15) mole fraction ∙10^4 | xE mole fraction solubility (water + ETA (ChCl:EG 1:2), x*ETA = 0.8, 303.15 K): 2241.64(±42.78) mole fraction ∙10^4 | xE mole fraction solubility (water + ETA (ChCl:EG 1:2), x*ETA = 0.8, 308.15 K): 2989.20(±42.33) mole fraction ∙10^4 | xE mole fraction solubility (water + ETA (ChCl:EG 1:2), x*ETA = 0.8, 313.15 K): 3720.80(±28.54) mole fraction ∙10^4 | xE mole fraction solubility (water + GLE (ChCl:GL 1:2), x*GLE = 0.2, 298.15 K): 235.51(±9.67) mole fraction ∙10^4 | xE mole fraction solubility (water + GLE (ChCl:GL 1:2), x*GLE = 0.2, 303.15 K): 309.2(±4.30) mole fraction ∙10^4 | xE mole fraction solubility (water + GLE (ChCl:GL 1:2), x*GLE = 0.2, 308.15 K): 435.07(±4.04) mole fraction ∙10^4 | xE mole fraction solubility (water + GLE (ChCl:GL 1:2), x*GLE = 0.2, 313.15 K): 564.61(±7.05) mole fraction ∙10^4 | xE mole fraction solubility (water + GLE (ChCl:GL 1:2), x*GLE = 0.4, 298.15 K): 743.88(±5.92) mole fraction ∙10^4 | xE mole fraction solubility (water + GLE (ChCl:GL 1:2), x*GLE = 0.4, 303.15 K): 1116.64(±2.70) mole fraction ∙10^4 | xE mole fraction solubility (water + GLE (ChCl:GL 1:2), x*GLE = 0.4, 308.15 K): 1444.07(±14.86) mole fraction ∙10^4 | xE mole fraction solubility (water + GLE (ChCl:GL 1:2), x*GLE = 0.4, 313.15 K): 2014.09(±17.34) mole fraction ∙10^4 | xE mole fraction solubility (water + GLE (ChCl:GL 1:2), x*GLE = 0.5, 298.15 K): 1121.47(±10.85) mole fraction ∙10^4 | xE mole fraction solubility (water + GLE (ChCl:GL 1:2), x*GLE = 0.5, 303.15 K): 1673.69(±20.61) mole fraction ∙10^4 | xE mole fraction solubility (water + GLE (ChCl:GL 1:2), x*GLE = 0.5, 308.15 K): 2236.41(±28.00) mole fraction ∙10^4 | xE mole fraction solubility (water + GLE (ChCl:GL 1:2), x*GLE = 0.5, 313.15 K): 3065.17(±55.82) mole fraction ∙10^4 | xE mole fraction solubility (water + GLE (ChCl:GL 1:2), x*GLE = 0.6, 298.15 K): 1450.22(±11.26) mole fraction ∙10^4 | xE mole fraction solubility (water + GLE (ChCl:GL 1:2), x*GLE = 0.6, 303.15 K): 2089.77(±58.10) mole fraction ∙10^4 | xE mole fraction solubility (water + GLE (ChCl:GL 1:2), x*GLE = 0.6, 308.15 K): 2723.73(±61.99) mole fraction ∙10^4 | xE mole fraction solubility (water + GLE (ChCl:GL 1:2), x*GLE = 0.6, 313.15 K): 3567.08(±42.51) mole fraction ∙10^4 | xE mole fraction solubility (water + GLE (ChCl:GL 1:2), x*GLE = 0.8, 298.15 K): 1305.70(±26.15) mole fraction ∙10^4 | xE mole fraction solubility (water + GLE (ChCl:GL 1:2), x*GLE = 0.8, 303.15 K): 1852.98(±39.43) mole fraction ∙10^4 | xE mole fraction solubility (water + GLE (ChCl:GL 1:2), x*GLE = 0.8, 308.15 K): 2525.56(±24.65) mole fraction ∙10^4 | xE mole fraction solubility (water + GLE (ChCl:GL 1:2), x*GLE = 0.8, 313.15 K): 3420.95(±31.16) mole fraction ∙10^4 | solubility at 24 h (water, neat water (x*DES = 0.0), 298.15 K): 1.72 mg/mL (≈ 9.87 mM) | solubility at 24 h (water, neat water (x*DES = 0.0), 303.15 K): 1.79 mg/mL (≈ 10.3 mM) | solubility at 24 h (water, neat water (x*DES = 0.0), 308.15 K): 1.87 mg/mL (≈ 10.7 mM) | solubility at 24 h (water, neat water (x*DES = 0.0), 313.15 K): 1.96 mg/mL (≈ 11.3 mM)
